For assay [1], the target named is T1, SARS-CoV-2 nsp13 helicase (Severe acute respiratory syndrome coronavirus 2, UniProt P0DTD1). Put plainly: biochemical. The format is biochemical.
Assay [2] addresses T2, SARS-CoV-2 RdRp holoenzyme (Severe acute respiratory syndrome coronavirus 2, UniProt P0DTD1).
T2 construct: (Sf nsp12-3F/7L8 preincubated with Sf 7H8 at a 1:3 ratio); 3F (3xFlag) (C); made in house; host or cells: 'Sf', read as Spodoptera frugiperda insect cells (my inference from the prefix); details are in Bertolin et al
Put plainly: FRET-based RdRp strand displacement assay. It counts as biochemical.

Assay [3] concerns the target T1, SARS-CoV-2 nsp13 helicase. It counts as biochemical.
Assay [4] concerns SARS-CoV-2. Put plainly: microbe, parasite or virus in culture. It counts as cell-based. The settings on record: for EC50: read-out: EC50 viral inhibition.
Setting [5] is: RNA (nsp13 substrate), 0.3 mM ATP, 0.02% Tween-20 in RdRp assay buffer, read-out: IC50 nsp13.
The mark [6] stands for this setting: read-out: IC50 + 0.02% Tween-20.
Setting [7] is: RNA (RdRp substrate), 0.3 mM each NTP, 0.02% Tween-20 in RdRp assay buffer, read-out: IC50 RdRp.
The mark [8] stands for this setting: read-out: IC50 + 0.01% Triton X-100.
Setting [9] is: Severe acute respiratory syndrome coronavirus 2, Vero C1008, 22 h.
Setting [10] is: presence or absence of non-ionic detergent.
The mark [11] stands for this setting: read-out: IC50 0.02% Tween-20 + (presence).
The mark [12] stands for this setting: read-out: IC50 0.02% Tween-20 − (absence).
Where [13] appears, read: IC50 0.02% Tween-20 + (presence).
[14] abbreviates: IC50 0.02% Tween-20 − (absence).
Setting [15] is: RNA (nsp13 substrate), 0.3 mM ATP, 0.02% Tween-20 in RdRp assay buffer.
Setting [16] is: RNA (RdRp substrate), 0.3 mM each NTP, 0.02% Tween-20 in RdRp assay buffer.

“And” between values parts separate entries of the source, which are not always exact repeats. Equal entries are not always repeated. “Also recorded” adds a separate entry of the source. Where two headings read alike, the source gives them in different places. Where only a bound is given, the exact number is not on record here.

Turning to `Cc1cc(-c2ccc(N=Nc3c(S(=O)(=O)[O-])cc4cc(S(=O)(=O)[O-])cc(N)c4c3O)c(C)c2)ccc1N=Nc1c(S(=O)(=O)[O-])cc2cc(S(=O)(=O)[O-])cc(N)c2c1O.[Na+].[Na+].[Na+].[Na+]` [Diphenyl Blue], the IC50 – broadly, the point on the concentration scale where inhibition reaches its midpoint – in assay [1] (setting [5]) amounted to 4 µM; in assay [1] (setting [6]), 4.7 µM; in assay [1] (read-out: IC50 No detergent), 5.6 µM; in assay [2] (setting [7]), 5 µM. Moreover, in assay [3], the “inhibition of duplex unwinding in gel-based assay” value (“inhibition of duplex unwinding” for short) was “clearly reduced the generation of single-stranded Cy3 strand”.

Regarding `Cc1cc(-c2ccc(/N=N/c3ccc4c(S(=O)(=O)O)cc(S(=O)(=O)O)c(N)c4c3O)c(C)c2)ccc1/N=N/c1ccc2c(S(=O)(=O)O)cc(S(=O)(=O)O)c(N)c2c1O` [Evans Blue], the IC50 in assay [1] (IC50 No detergent) was found to be 1.2 µM; in assay [1] (setting [5]), 1.5 µM. Further, the “inhibition of duplex unwinding” value in assay [3] was “clearly reduced the generation of single-stranded Cy3 strand”.

On to `NC(=S)N/N=C/c1coc2ccccc2c1=O.[Cl][Cu][Cl]` [FPA 124], for which the “nsp13 inhibition and detergent sensitivity” value in assay [1] is given as “no detergent sensitivity; also recorded: largely insensitive to detergent addition”. Besides, the IC50 in assay [1] (setting [8]) is 8.9 µM; in assay [1] (setting [6]) it was 8.4 µM; in assay [1] (read-out: IC50 -Triton X-100), 9.1 µM; in assay [1] (read-out: IC50 No detergent), 8.5 µM; in assay [1] (read-out: IC50 against nsp13 in vitro), about 9 µM. Besides, the “inhibition of duplex unwinding” value in assay [3] is recorded as “clearly reduced the generation of single-stranded Cy3 strand”. Also, in assay [4], the half-maximal effective concentration (EC50) (usually the concentration giving half of the maximal effect) was 14 µM and ~14 µM.

Consider `O=c1c(O)c(-c2cc(O)c(O)c(O)c2)oc2cc(O)cc(O)c12` [Myricetin], for which the “nsp13 inhibition and detergent sensitivity” value in assay [1] is “clear inhibition only in the absence of detergent”. Further, in assay [3], the “inhibition of duplex unwinding” value is listed as “inhibited nsp13 with less efficiency”. Moreover, the figures for the EC50 in assay [4] (setting [9]) and in assay [4] were 32 µM and 31.6 µM, respectively.

With `O=C(Nc1cccc(C(=O)Nc2ccc(S(=O)(=O)[O-])c3cc(S(=O)(=O)[O-])cc(S(=O)(=O)[O-])c23)c1)Nc1cccc(C(=O)Nc2ccc(S(=O)(=O)[O-])c3cc(S(=O)(=O)[O-])cc(S(=O)(=O)[O-])c23)c1.[Na+].[Na+].[Na+].[Na+].[Na+].[Na+]` [NF 023], the half-inhibitory concentration (IC50) in assay [1] (setting [5]) was 0.7 µM; in assay [1] (setting [11]) it was 0.64 µM; in assay [1] (setting [12]), 0.67 µM; in assay [1] (setting [8]), 0.51 µM; in assay [1] (setting [6]), 0.92 µM; in assay [1] (read-out: IC50 -Triton X-100), 0.33 µM. Besides, the “nsp13 inhibition and detergent sensitivity” value in assay [1] (setting [10]) is listed as “largely insensitive to detergent addition”. Moreover, in assay [3], the “inhibition of duplex unwinding” value is reported as “clearly reduced the generation of single-stranded Cy3 strand”.

Take `CC1(C)CCC(c2ccc(Cl)cc2)=C(CN2CCN(c3ccc(C(=O)NS(=O)(=O)c4ccc(N[C@H](CCN5CCOCC5)CSc5ccccc5)c(S(=O)(=O)C(F)(F)F)c4)cc3)CC2)C1` [Navitoclax]: the half-inhibitory concentration (IC50) was over 250 µM in assay [1] (setting [13]); 0.74 µM in assay [1] (setting [14]); 7.3 µM in assay [1] (IC50 + 0.01% Triton X-100); over 250 µM in assay [1] (IC50 + 0.02% Tween-20); 2.2 µM in assay [1] (IC50 -Triton X-100); 1.2 µM in assay [1] (IC50 No detergent). Further, the concentration for half-maximal inhibition (IC50) in assay [1] (setting [5]) is over 100 µM; in assay [2] (setting [7]), 92 µM. Further, the “nsp13 inhibition and detergent sensitivity” value in assay [1] (setting [10]) is “strong sensitivity to detergents”.

For `CCCCCCCC/C=C\CCCCCCCC(=O)O` [Oleic acid], the IC50 worked out at 117 µM in assay [1] (setting [13]), 14 µM in assay [1] (setting [14]), 58 µM in assay [1] (IC50 + 0.02% Tween-20) and 6.8 µM in assay [1] (IC50 No detergent). Further, the “IC50 nsp13” value in assay [1] (setting [15]) is “No inhibition”. Further, in assay [2] (setting [16]), the “IC50 RdRp” value is on record as “No inhibition”.

For `Cc1nc(N=Nc2cc(S(=O)(=O)[O-])c3cc([N+](=O)[O-])cc(S(=O)(=O)[O-])c3c2)c(COP(=O)([O-])[O-])c(C=O)c1O.[Na+].[Na+].[Na+].[Na+]` [PPNDS], the IC50 in assay [1] (setting [5]) was determined as 2.2 µM; in assay [1] (setting [6]) it was 1.6 µM; in assay [1] (read-out: IC50 No detergent) it was 2 µM; in assay [2] (setting [7]) it was 0.7 µM. The “inhibition of duplex unwinding” value in assay [3] is “clearly reduced the generation of single-stranded Cy3 strand”.

In the case of `COc1cc(C(N)=O)ccc1NC(=O)[C@@H]1N[C@@H](CC(C)(C)C)[C@@]2(C(=O)Nc3cc(Cl)ccc32)[C@H]1c1cccc(Cl)c1F` [RO8994], in assay [1], the “IC50 nsp13” value is “No inhibition”. Also, the concentration for half-maximal inhibition (IC50) in assay [1] (setting [6]) is over 250 µM; in assay [1] (read-out: IC50 No detergent), 2.9 µM. Also, the “IC50 RdRp” value in assay [2] (setting [16]) is “No inhibition”.

Take `CCC(CC)COC(=O)[C@H](C)N[P@](=O)(OC[C@H]1O[C@@](C#N)(c2ccc3c(N)ncnn23)[C@H](O)[C@@H]1O)Oc1ccccc1` [Remdesivir]: the inhibition (as a rule, how much of the control response was suppressed) at 1 µM in assay [4] (Severe acute respiratory syndrome coronavirus 2, Vero C1008, 1 µM remdesivir alone, Vero E6 cells, read-out: inhibition of viral infection) is under 20%.

As to `COc1cccc(NC(=O)/C=C/c2ccc(Cl)cc2)c1` [SB-366791], the “IC50 nsp13” value in assay [1] (setting [15]) is “No inhibition”. Besides, the IC50 in assay [1] (setting [6]) and in assay [1] (read-out: IC50 No detergent) was over 250 µM each time. Moreover, in assay [2] (setting [16]), the “IC50 RdRp” value was “No inhibition”.

Regarding `C=CCn1c(CSc2ccccc2[N+](=O)[O-])n[nH]c1=S` [SSYA10-001], the “nsp13 inhibition and detergent sensitivity” value in assay [1] is “moderate sensitivity to detergent”. Further, the IC50 came out at 21 µM in assay [1] (setting [8]), 28 µM in assay [1] (setting [6]), 14 µM in assay [1] (read-out: IC50 -Triton X-100) and 7.5 µM in assay [1] (read-out: IC50 No detergent). In assay [3], the “inhibition of duplex unwinding” value was “inhibited nsp13 with less efficiency”. Also, in assay [4], the EC50 is 81 µM and 80.5 µM.

Turning to `Cc1ccc(C(=O)Nc2ccc(S(=O)(=O)O)c3cc(S(=O)(=O)O)cc(S(=O)(=O)O)c23)cc1NC(=O)c1cccc(NC(=O)Nc2cccc(C(=O)Nc3cc(C(=O)Nc4ccc(S(=O)(=O)O)c5cc(S(=O)(=O)O)cc(S(=O)(=O)O)c45)ccc3C)c2)c1` [Suramin], the “nsp13 inhibition and detergent sensitivity” value in assay [1] is given as “largely insensitive to detergent addition”. For the same compound, the IC50 in assay [1] (setting [13]) was 1.6 µM; in assay [1] (setting [14]), 0.74 µM; in assay [1] (IC50 + 0.01% Triton X-100), 1.6 µM; in assay [1] (IC50 -Triton X-100), 1.3 µM; in assay [1] (IC50 No detergent), 0.94 µM; in assay [1] (IC50 against nsp13 in vitro), about 1 µM. Moreover, the IC50 in assay [1] (IC50 nsp13) came out at 1.5 µM; in assay [2] (setting [7]), 0.5 µM. The “inhibition of duplex unwinding” value in assay [3] is “clearly reduced the generation of single-stranded Cy3 strand”. In addition, the EC50 in assay [4] (setting [9]) is 9.9 µM; in assay [4], about 10 µM.

As to `O=C1CC(=O)c2c(Cl)c(Cl)c(Cl)c(Cl)c21` [TCID], the IC50 turned out to be 15 µM in assay [1] (setting [11]); 1.9 µM in assay [1] (setting [12]); 24 µM in assay [1] (setting [6]); 8.1 µM in assay [1] (read-out: IC50 No detergent); 21 µM in assay [1] (read-out: IC50 nsp13); 35 µM in assay [2] (setting [7]).

For `CC(C)c1ccccc1Cc1cc(C(=O)Nc2ccc(S(=O)(=O)c3ccccc3C(C)(C)C)cc2)c(O)c(O)c1O` [TW-37], the IC50 in assay [1] (setting [6]) is 109 µM; in assay [1] (read-out: IC50 No detergent) it was 2.8 µM; in assay [1] (read-out: IC50 nsp13) it was 39 µM; in assay [2] (setting [7]), 27 µM.

Take `CC1(C)CCC(CN2CCN(c3ccc(C(=O)NS(=O)(=O)c4ccc(NCC5CCOCC5)c([N+](=O)[O-])c4)c(Oc4cnc5[nH]ccc5c4)c3)CC2)=C(c2ccc(Cl)cc2)C1` [Venetoclax/ABT-199, Venetoclax]: the IC50 was over 250 µM in assay [1] (IC50 + 0.02% Tween-20) and 25 µM in assay [1] (IC50 No detergent). Besides, the “IC50 nsp13” value in assay [1] (setting [15]) is “No inhibition”. Also, in assay [2] (setting [16]), the “IC50 RdRp” value is reported as “No inhibition”.

In the case of `COc1cc(C(=O)NS(=O)(=O)c2ccccc2C)ccc1Cc1cn(C)c2ccc(NC(=O)OC3CCCC3)cc12` [Zafirlukast], the concentration for half-maximal inhibition (IC50) in assay [1] (setting [13]) is 50 µM; in assay [1] (setting [14]), 1.5 µM; in assay [1] (IC50 + 0.01% Triton X-100), 22 µM; in assay [1] (IC50 + 0.02% Tween-20), 53 µM and 55 µM; in assay [1] (IC50 -Triton X-100), 7.4 µM; in assay [1] (IC50 No detergent), 3.6 µM and 6.6 µM. For the same compound, the figures for the IC50 in assay [1] (setting [5]) and in assay [2] were 48 µM and 46 µM, respectively.

The values above are taken from paper PMC8286831, “Identifying SARS-CoV-2 antiviral compounds by screening for small molecule inhibitors of nsp13 helicase” (Biochemical Journal, 2021).
